Reference: patent publication US10065990B2, “Cyclic peptide compound, and preparation method, pharmaceutical composition and use thereof” (HANGZHOU GUANYU BIO-MEDICAL CO., LTD, priority 2013, dated 2018)
Like-named read-outs stand apart in the source and are kept apart here.

Experiments:
[1] = target: HDAC1 (Homo sapiens, UniProt Q13547); experiment: HDAC biochemical activity measurement (fluorescent substrate deacetylation); details: Table 3, column C; read-out: IC50 HDAC1, C (six-membered ring with substituents);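 further: fluorogenic acetyl-lysine substrate (20 µM) deacetylated by HDAC1, then developer releases fluorophore read at 360 nm excitation and 460 nm emission, inhibitor incubated 30 min at 37 °C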
Chain of HDAC1 (Q13547 whole entry, species assumed): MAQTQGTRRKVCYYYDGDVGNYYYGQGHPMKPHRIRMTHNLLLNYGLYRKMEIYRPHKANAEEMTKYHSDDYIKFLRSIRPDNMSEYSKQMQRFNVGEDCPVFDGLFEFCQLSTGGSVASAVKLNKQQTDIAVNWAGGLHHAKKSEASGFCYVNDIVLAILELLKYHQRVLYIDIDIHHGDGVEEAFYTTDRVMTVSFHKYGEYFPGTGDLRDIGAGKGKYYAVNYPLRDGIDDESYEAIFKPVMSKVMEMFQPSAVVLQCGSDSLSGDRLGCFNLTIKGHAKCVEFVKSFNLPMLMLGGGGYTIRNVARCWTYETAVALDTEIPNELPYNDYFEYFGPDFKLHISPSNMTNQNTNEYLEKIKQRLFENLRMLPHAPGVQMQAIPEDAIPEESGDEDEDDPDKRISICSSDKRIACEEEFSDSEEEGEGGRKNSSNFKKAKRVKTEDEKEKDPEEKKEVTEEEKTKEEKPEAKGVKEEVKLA
Description: The chemical activity of the compound is determined according to the degree of deacetylation inhibition of the HDAC enzyme. This experiment measured the degree of deacetylation related to tumor proliferation and metastasis of HDAC1, HDAC2, HDAC3, HDAC8, HDAC11 five subtypes HDAC enzymes. After the substrate containing an acetylated lysine side chain and HDAC enzyme are labeled with a fluorescent label, the fluorescent substrate is de acetyl. The fluorescent labeled substrate is cleaved by the enzyme, and the fluorescent substance is released, which generates 460 nm emission light under the excitation of 360 nm light.
HDAC substrate was diluted with reaction buffer to 200M (reaction concentration of 20M), the HDAC enzyme was diluted to the appropriate concentration, then added different concentrations of the test compounds and acted at 37° C. 30 minutes, and then added the same volume of 2-times concentration substrate developing solution (developer), incubated at room temperature for 15 minutes.

[2] = tested on: A549 (human lung cancer cells); experiment: MTT cancer cell growth inhibition; assay type: cell-based; details: MTT, 72 hours incubation, read-out: GI50 A54
Outline: (§1)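 72 h exposure, final drug 10^−5–10^−10 M, triplicate wells; 1500 cells/well plated the day before; medium DMEM or 1640 + 10% FBS; 37° C./5% CO2. MTT (5 mg/ml stock) 4 h, DMSO solubilisation, A570 → % viability → GI50.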

[3] = tested on: BGC-823 (human gastric cancer cells); experiment: MTT cancer cell growth inhibition; assay type: cell-based; details: MTT, 72 hours incubation, read-out: GI50 BG
Outline: as §1

[4] = tested on: Bel-7402 (human hepatoma cells); experiment: MTT cancer cell growth inhibition; assay type: cell-based; details: MTT, 72 hours incubation, Bel-7402 cells, read-out: GI50 Bel-7402
Outline: as §1

[5] = tested on: DU145 (human prostate cancer cells); experiment: MTT cancer cell growth inhibition; assay type: cell-based; details: MTT, 72 hours incubation, read-out: GI50 Du1
Outline: as §1

[6] = tested on: H1975 (non-small cell lung adenocarcinoma); experiment: MTT cancer cell growth inhibition; assay type: cell-based; details: MTT, 72 hours incubation, H1975 cells, read-out: GI50 H1975
Outline: as §1

[7] = tested on: HCC827 (human non-small cell lung cancer cells); experiment: MTT cancer cell growth inhibition; assay type: cell-based; details: MTT, 72 hours incubation, HCC827 cells, read-out: GI50 HCC827
Outline: as §1

[8] = tested on: HT1080 (human fibrosarcoma cells); experiment: MTT cancer cell growth inhibition; assay type: cell-based; details: MTT, 72 hours incubation, read-out: GI50 HT1
Outline: as §1

[9] = tested on: Hela (human cervical cancer cells); experiment: MTT cancer cell growth inhibition; assay type: cell-based; details: MTT, 72 hours incubation, read-out: GI50 Hela
Outline: as §1

[10] = tested on: Huh-7 (human hepatoma cells); experiment: MTT cancer cell growth inhibition; assay type: cell-based; details: MTT, 72 hours incubation, Huh-7 cells, read-out: GI50 Huh-7
Outline: as §1

[11] = tested on: K562 (human leukemia cells); experiment: MTT cancer cell growth inhibition; assay type: cell-based; details: MTT, 72 hours incubation, K562 cells, read-out: GI50 K562
Outline: as §1

[12] = tested on: KBM-5 (human chronic myelogenous leukemia); experiment: MTT cancer cell growth inhibition; assay type: cell-based; details: MTT, 72 hours incubation, KBM-5 cells, read-out: GI50 KBM-5
Outline: as §1

[13] = tested on: KBM5-T315I (human chronic myelogenous leukemia); experiment: MTT cancer cell growth inhibition; assay type: cell-based; details: MTT, 72 hours incubation, KBM5-T315I cells, read-out: GI50 KBM5-T315I
Outline: as §1

[14] = tested on: MCF-7 (human breast cancer cells); experiment: MTT cancer cell growth inhibition; assay type: cell-based; details: 72 hours incubation, read-out: GI50 MCF
Outline: as §1

[15] = tested on: MDA-MB-231 (breast cancer cells); experiment: MTT cancer cell growth inhibition; assay type: cell-based
Outline: as §1

[16] = tested on: MOLT-4 (human acute lymphoblastic leukemia cells); experiment: MTT cancer cell growth inhibition; assay type: cell-based; details: MTT, 72 hours incubation, read-out: GI50 Mol
Outline: as §1

[17] = tested on: N-87 (human gastric cancer cells); experiment: MTT cancer cell growth inhibition; assay type: cell-based; details: MTT, 72 hours incubation, N-87 cells, read-out: GI50 N-87
Outline: as §1

[18] = tested on: PANC-1 (Pac-1, human pancreatic cancer cells); experiment: MTT cancer cell growth inhibition; assay type: cell-based; details: MTT, 72 hours incubation, read-out: GI50 PAN
Outline: as §1

[19] = tested on: SGC-7901 (human gastric cancer cells); experiment: MTT cancer cell growth inhibition; assay type: cell-based; details: MTT, 72 hours incubation, SGC-7901 cells, read-out: GI50 SGC-7901
Outline: as §1

[20] = tested on: U937 (human leukemia cells); experiment: MTT cancer cell growth inhibition; assay type: cell-based; details: MTT, 72 hours incubation, read-out: GI50 U93
Outline: as §1

[21] = tested on: lncap (prostate cancer cells); experiment: MTT cancer cell growth inhibition; assay type: cell-based; details: MTT, 72 hours incubation, read-out: GI50 lnca
Outline: as §1

[22] = target: T1, HDAC7 (Homo sapiens, UniProt Q8WUI4); experiment: HDAC biochemical activity measurement (fluorescent substrate deacetylation);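 further: fluorogenic deacetylation assay using acetyl-lysine substrate at 20 µM, enzyme and compound incubated 30 min at 37 °C, then developer added, fluorescence read at 360/460 nm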; details: HDAC7; 37° C. 30 minutes
T1 sequence (Q8WUI4 1-952): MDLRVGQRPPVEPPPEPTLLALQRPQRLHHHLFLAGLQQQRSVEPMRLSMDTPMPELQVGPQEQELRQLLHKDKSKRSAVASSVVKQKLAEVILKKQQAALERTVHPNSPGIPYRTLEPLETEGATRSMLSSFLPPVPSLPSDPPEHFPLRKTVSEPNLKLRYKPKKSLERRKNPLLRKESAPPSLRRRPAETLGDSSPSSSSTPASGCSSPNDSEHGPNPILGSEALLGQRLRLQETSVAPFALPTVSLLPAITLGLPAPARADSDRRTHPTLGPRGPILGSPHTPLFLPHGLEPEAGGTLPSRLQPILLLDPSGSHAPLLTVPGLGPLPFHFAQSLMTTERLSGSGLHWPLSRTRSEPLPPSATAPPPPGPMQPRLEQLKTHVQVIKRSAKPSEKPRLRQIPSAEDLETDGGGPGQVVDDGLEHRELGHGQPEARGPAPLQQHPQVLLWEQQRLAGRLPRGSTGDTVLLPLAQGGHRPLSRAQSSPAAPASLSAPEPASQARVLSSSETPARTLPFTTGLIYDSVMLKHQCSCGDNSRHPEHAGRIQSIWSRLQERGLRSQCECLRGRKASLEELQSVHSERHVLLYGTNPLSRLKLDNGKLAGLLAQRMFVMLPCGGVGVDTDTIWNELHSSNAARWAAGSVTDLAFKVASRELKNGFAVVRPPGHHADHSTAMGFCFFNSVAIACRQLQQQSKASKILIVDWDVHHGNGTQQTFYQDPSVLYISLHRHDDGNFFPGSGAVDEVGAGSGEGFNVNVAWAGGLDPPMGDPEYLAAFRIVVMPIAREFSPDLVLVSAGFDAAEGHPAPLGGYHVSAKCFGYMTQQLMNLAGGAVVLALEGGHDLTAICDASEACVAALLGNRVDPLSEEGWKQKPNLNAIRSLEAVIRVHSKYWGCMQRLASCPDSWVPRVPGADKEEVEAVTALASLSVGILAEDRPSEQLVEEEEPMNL

[23] = Homo sapiens, MDA-MB-231, 72 h, read-out: GI50 MDA-MB-231, MTT, 72 hours incubation, MDA-MB-231 cells

Row | SMILES | GI50 ([2]; Homo sapiens, A549, 72 h) | GI50 ([3]; Homo sapiens, BGC-823, 72 h) | GI50 ([4]; Homo sapiens, Bel-7402, 72 h) | GI50 ([5]; Homo sapiens, DU-145, 72 h) | GI50 ([6]; Homo sapiens, NCI-H1975, 72 h) | GI50 ([7]; Homo sapiens, HCC827, 72 h) | GI50 ([8]; Homo sapiens, HT-1080, 72 h) | GI50 ([9]; Homo sapiens, HeLa, 72 h) | GI50 ([10]; Homo sapiens, Huh-7, 72 h) | GI50 ([11]; Homo sapiens, K562, 72 h) | GI50 ([12]; Homo sapiens, KBM5, 72 h) | GI50 ([13]; Homo sapiens, 72 h) | GI50 ([14]; Homo sapiens, MCF7, 72 h) | GI50 [15, 23] | GI50 ([16]; Homo sapiens, MOLT-4, 72 h) | GI50 ([17]; Homo sapiens, 72 h) | GI50 ([18]; Homo sapiens, PANC-1, 72 h) | GI50 ([19]; Homo sapiens, SGC-7901, 72 h) | GI50 ([20]; Homo sapiens, U-937, 72 h) | IC50 HDAC7 [22] | other results
1 | C/C=C1\NC(=O)c2cc(F)cc(n2)CNC(=O)C[C@@H](/C=C/CCSC(C)=O)OC(=O)[C@H](C)NC1=O [Compound 64] | 30 nM | 30 nM | 51 nM | 20 nM | 38 nM | 51 nM | 50 nM | 80 nM | 46 nM | 26 nM | 82 nM | 22 nM | 20 nM | 46 nM | 40 nM | 30 nM | 50 nM | 35 nM | 30 nM |  | IC50 [1]: 24 nM; GI50 ([21]; Homo sapiens, LNCaP, 72 h): 40 nM
2 | C/C=C1\NC(=O)c2cc(SC)cc(n2)CNC(=O)C[C@@H](/C=C/CCSC(C)=O)OC(=O)[C@H](C)NC1=O [Compound 214] |  |  |  |  |  |  |  |  |  |  |  |  |  |  |  |  |  |  |  | no activity | GI50 ([2]; A549 cells): 90 nM; GI50 ([3]; BGC-823 cells): 20 nM; GI50 [4]: 71 nM; GI50 ([5]; DU145 cells): 40 nM; GI50 [6]: 63 nM; GI50 [7]: 35 nM; GI50 ([8]; HT1080 cells): 40 nM; GI50 ([9]; Hela cells): 60 nM; GI50 [10]: 41 nM; GI50 [11]: 71 nM; GI50 [12]: 19 nM; GI50 [13]: 73 nM; GI50 ([14]; MCF-7 cells): 50 nM; GI50 ([15]; read-out: GI50 MDA-MB-231, MTT, 72 hours incubation, MDA-MB-231 cells): 15 nM; GI50 ([16]; MOLT-4 cells): 50 nM; GI50 [17]: 95 nM; GI50 ([18]; PANC-1 cells): 40 nM; GI50 [19]: 68 nM; GI50 ([20]; U937 cells): 50 nM; GI50 ([21]; lncap cells): 110 nM

The remaining compounds from weak to strong by GI50 ([4]; Homo sapiens, Bel-7402, 72 h), led by results:

Row | GI50 ([2]; Homo sapiens, A549, 72 h) | GI50 ([3]; Homo sapiens, BGC-823, 72 h) | GI50 ([4]; Homo sapiens, Bel-7402, 72 h) | GI50 ([5]; Homo sapiens, DU-145, 72 h) | GI50 ([6]; Homo sapiens, NCI-H1975, 72 h) | GI50 ([7]; Homo sapiens, HCC827, 72 h) | GI50 ([8]; Homo sapiens, HT-1080, 72 h) | GI50 ([9]; Homo sapiens, HeLa, 72 h) | GI50 ([10]; Homo sapiens, Huh-7, 72 h) | GI50 ([11]; Homo sapiens, K562, 72 h) | GI50 ([12]; Homo sapiens, KBM5, 72 h) | GI50 ([13]; Homo sapiens, 72 h) | GI50 ([14]; Homo sapiens, MCF7, 72 h) | GI50 [15, 23] | GI50 ([16]; Homo sapiens, MOLT-4, 72 h) | GI50 ([17]; Homo sapiens, 72 h) | GI50 ([18]; Homo sapiens, PANC-1, 72 h) | GI50 ([19]; Homo sapiens, SGC-7901, 72 h) | GI50 ([20]; Homo sapiens, U-937, 72 h) | IC50 HDAC7 [22] | SMILES | other results
3 | 60 nM | 40 nM | 37 nM | 50 nM | 38 nM | 37 nM | 90 nM | 90 nM | 26 nM | 36 nM | 62 nM | 28 nM | 50 nM | 27 nM | 90 nM | 38 nM | 40 nM | 34 nM | 60 nM | no activity | C/C=C1\NC(=O)c2cccc(n2)CNC(=O)C[C@@H](/C=C/CCS)OC(=O)[C@H](CCCCNC(=O)OCC2c3ccccc3-c3ccccc32)NC1=O [Compound 119] | GI50 ([21]; Homo sapiens, LNCaP, 72 h): 90 nM
4 | 60 nM | 70 nM | 34 nM | 10 nM | 72 nM | 86 nM | 40 nM | 80 nM | 66 nM | 35 nM | 22 nM | 59 nM | 20 nM | 58 nM | 20 nM | 16 nM | 60 nM | 33 nM | 30 nM | no activity | C/C=C1\NC(=O)c2cc(F)cc(n2)CNC(=O)C[C@@H](/C=C/CCS)OC(=O)[C@H](CCCCN)NC1=O [Compound 117] | GI50 ([21]; Homo sapiens, LNCaP, 72 h): 20 nM
5 |  |  | 30 nM |  | 12 nM | 43 nM |  |  | 28 nM | 57 nM | 41 nM | 34 nM |  | 53 nM |  | 32 nM |  | 76 nM |  | no activity | C/C=C1\NC(=O)c2nc(ccc2SC)CNC(=O)C[C@@H](/C=C/CCSC(C)=O)OC(=O)[C@H](C(C)C)NC1=O [Compound 165] | GI50 ([2]; Homo sapiens, A549, 72 h, A549 cells): 30 nM; GI50 ([3]; Homo sapiens, BGC-823, 72 h, BGC-823 cells): 20 nM; GI50 ([5]; Homo sapiens, DU-145, 72 h, DU145 cells): 60 nM; GI50 ([8]; Homo sapiens, HT-1080, 72 h, HT1080 cells): 60 nM; GI50 ([9]; Homo sapiens, HeLa, 72 h, Hela cells): 60 nM; GI50 ([14]; Homo sapiens, MCF7, 72 h, MCF-7 cells): 30 nM; GI50 ([16]; Homo sapiens, MOLT-4, 72 h, MOLT-4 cells): 40 nM; GI50 ([18]; Homo sapiens, PANC-1, 72 h, PANC-1 cells): 70 nM; GI50 ([20]; Homo sapiens, U-937, 72 h, U937 cells): 50 nM; GI50 ([21]; Homo sapiens, LNCaP, 72 h, lncap cells): 20 nM
